For 25 compounds, IC50 results are on record in patent US9765092B2, “Tricyclic piperidine compounds” (ACTELION PHARMACEUTICALS LTD, priority 2013, dated 2017).

The structures appear in SMILES notation.

human TPH1, sequence (P17752 whole entry): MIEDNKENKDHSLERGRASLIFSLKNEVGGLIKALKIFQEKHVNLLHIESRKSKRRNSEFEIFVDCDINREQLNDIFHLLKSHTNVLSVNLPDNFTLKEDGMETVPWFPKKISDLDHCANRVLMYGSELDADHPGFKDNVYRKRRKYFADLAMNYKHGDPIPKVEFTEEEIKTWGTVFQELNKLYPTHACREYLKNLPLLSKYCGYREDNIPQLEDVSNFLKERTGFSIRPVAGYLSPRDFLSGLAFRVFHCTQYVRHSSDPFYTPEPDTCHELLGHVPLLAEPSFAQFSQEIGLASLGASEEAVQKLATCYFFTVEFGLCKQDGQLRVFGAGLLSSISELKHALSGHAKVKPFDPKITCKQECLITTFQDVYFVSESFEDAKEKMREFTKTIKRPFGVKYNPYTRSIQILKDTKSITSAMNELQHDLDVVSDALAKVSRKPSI

The first assay has as its target human TPH1 (Homo sapiens (Human), UniProt P17752). The experiment in a line: Biochemical in vitro assay using fluorescence readout (TPH1 inhibition). Particulars: full length human TPH1, 40 μM L-tryptophan, 15° C., 60 minutes, fluorescence at 540 nm; mean if determined several times.
Regarding `Cc1nn2c3c(nc2s1)CCN(C(=O)COc1cc(F)cnc1Cl)C3c1cnc(N(C)C)s1` (stereo not shown) [Example 1.22.4, 2-((2-Chloro-5-fluoropyridin-3-yl)oxy)-1-(5-(2-(dimethylamino)thiazol-5-yl)-2-methyl-7,8-dihydro-[1,3,4]thiadiazolo[2′,3′:2,3]imidazo[4,5-c]pyridin-6(5H)-yl)ethanone], half-maximal inhibition (IC50) was put at 79 nM. As for `Cc1nn2c3c(nc2s1)CCN(C(=O)COc1ccc(C(=O)N(C)C)nc1Cl)C3c1ccc(C(=O)N(C)C)o1` (stereo not shown) [Example 1.40.1, 6-Chloro-5-(2-(5-(5-(dimethylcarbamoyl)furan-2-yl)-2-methyl-7,8-dihydro[1,3,4]thiadiazolo[2′,3′:2,4]imidazo[4,5-c]pyridin-6(5H)-yl)-2-oxoethoxy)-N,N-dimethylpicolinamide], the IC50 (as a rule, the concentration that gives 50% inhibition) is 90 nM. `Cc1nn2c3c(nc2s1)CCN(C(=O)COc1ccc(C(=O)N(C)C)nc1Cl)C3c1cc(C(=O)N(C)C)cs1` (stereo not shown) [Example 1.9.5, 6-Chloro-5-(2-(5-(4-(dimethylcarbamoyl)thiophen-2-yl)-2-methyl-7,8-dihydro-[1,3,4]-thiadiazolo[2′,3′:2,3]imidazo[4,5-c]pyridin-6(5H)-yl)-2-oxoethoxy)-N,N-dimethyl-picolinamide] returned an IC50 of 22 nM. In turn, `Cc1nn2c3c(nc2s1)CCN(C(=O)COc1ccc(N2CCOCC2)nc1Cl)C3c1csc(C(=O)O)c1` (stereo not shown) [Example 1.38.1, 4-(6-(2-((2-Chloro-6-morpholinopyridin-3-yl)oxy)acetyl)-2-methyl-5,6,7,8-tetrahydro-[1,3,4]thiadiazolo[2′,3′:2,3]imidazo[4,5-c]pyridin-5-yl)thiophene-2-carboxylic acid] showed an IC50 of 113 nM. Compared with the last compound, the IC50 is about 5.1-fold higher. The same measure, in the same setting: next, `Cc1nn2c3c(nc2s1)CCN(C(=O)COc1ccc(C(=O)NO)nc1Cl)C3c1ccc(Cl)cc1F` (stereo not shown) [Example 1.4.25, 6-Chloro-5-(2-(5-(4-chloro-2-fluorophenyl)-2-methyl-7,8-dihydro-[1,3,4]thiadiazolo[2′,3′:2,3]imidazo[4,5-c]pyridin-6(5H)-yl)-2-oxoethoxy)-N-hydroxy-picolinamide]: 14 nM.

The same assay, now with this note: human TPH1, fluorescence readout.
With `Cc1nn2c3c(nc2s1)CCN(C(=O)COc1ccc(F)cc1Cl)C3c1ccc(C2CC2)cc1F` (stereo not shown) [Example 1.6.2, 2-(2-chloro-4-fluorophenoxy)-1-(5-(4-cyclopropyl-2-fluorophenyl)-2-methyl-7,8-dihydro-[1,3,4]thiadiazolo [2′,3′:2,3]imidazo[4,5-c]pyridin-6(5H)-yl)ethanone], the half-inhibitory concentration (IC50) was found to be 10 nM. In other words, the double-digit nanomolar range. The same measure, in the same setting: under `Cc1cnc(C2c3c(nc4sc(C)nn34)CCN2C(=O)COc2ccc(NS(C)(=O)=O)nc2Cl)c(F)c1` (stereo not shown) [Example 1.31.8, N-(6-chloro-5-(2-(5-(3-fluoro-5-methylpyridin-2-yl)-2-methyl-7,8-dihydro-[1,3,4]thiadiazolo[2′,3′:2,3]imidazo[4,5-c]pyridin-6(5H)-yl)-2-oxoethoxy)pyridin-2-yl)methanesulfonamide] stands 9 nM. As to `CCOC(=O)c1csc(C2c3c(nc4sc(C)nn34)CCN2C(=O)COc2ccc(C(F)(F)F)nc2Cl)n1` (stereo not shown) [Example 1.27.2, Ethyl 2-(6-(2-((2-chloro-6-(trifluoromethyl)pyridin-3-yl)oxy)acetyl)-2-methyl-5,6,7,8-tetrahydro-[1,3,4]thiadiazolo [2′,3′:2,3]imidazo[4,5-c]pyridin-5-yl)thiazole-4-carboxylate], the midpoint of inhibition, the IC50, lay at 500 nM. Compared with the last compound, the IC50 is about 56-fold higher. Regarding `Cc1nn2c3c(nc2s1)CCN(C(=O)COc1ccc(-c2ncco2)nc1Cl)C3c1ccc(C2CC2)cc1F` (stereo not shown) [Example 1.6.29, 2-((2-chloro-6-(oxazol-2-yl)pyridin-3-yl)oxy)-1-(5-(4-cyclopropyl-2-fluorophenyl)-2-methyl-7,8-dihydro-[1,3,4]thiadiazolo[2′,3′:2,3]imidazo[4,5-c]pyridin-6(5H)-yl)ethanone], 17 nM corresponded to half-maximal inhibition (IC50). The same measure, in the same setting: under `CCc1nc(C)ccc1OCC(=O)N1CCc2nc3sc(C)nn3c2C1c1cnc(C2CC2)nc1C` (stereo not shown) [Example 1.10.3, 1-(5-(2-cyclopropyl-4-methylpyrimidin-5-yl)-2-methyl-7,8-dihydro-[1,3,4]thiadiazolo[2′,3′:2,3]imidazo[4,5-c]pyridin-6(5H)-yl)-2-((2-ethyl-6-methylpyridin-3-yl)oxy)ethanone] stands 38 nM; under `CNC(=O)c1ccc(OCC(=O)N2CCc3nc4sc(C)nn4c3C2c2ncccc2F)c(Cl)n1` (stereo not shown) [Example 1.35.3, 6-chloro-5-(2-(5-(3-fluoropyridin-2-yl)-2-methyl-7,8-dihydro-[1,3,4]thiadiazolo[2′,3′:2,3]imidazo[4,5-c]pyridin-6(5H)-yl)-2-oxoethoxy)-N-methylpicolinamide], 29 nM.

With `Cc1nn2c3c(nc2s1)CCN(C(=O)COc1ccc(C(=O)N(C)C)nc1Cl)[C@H]3c1sc(C(=O)N(C)C)cc1F` [Example 1.24.11], half-maximal inhibition (IC50) required 4 nM. Same read-out and setting: under `Cc1nn2c3c(nc2s1)CCN(C(=O)COc1ccc(N2CC(F)(F)C2)nc1Cl)C3c1ncc(Cl)cc1F` (stereo not shown) [Example 1.33.2, 1-(5-(5-chloro-3-fluoropyridin-2-yl)-2-methyl-7,8-dihydro-[1,3,4]thiadiazolo[2′,3′:2,3]imidazo[4,5-c]pyridin-6(5H)-yl)-2-((2-chloro-6-(3,3-difluoroazetidin-1-yl)pyridin-3-yl)oxy)ethanone] stands 4 nM; under `CNC(=O)c1cc(F)c(C2c3c(nc4sc(C)nn34)CCN2C(=O)COc2cc(F)cnc2Cl)s1` (stereo not shown) [Example 1.25.9, 5-(6-(2-((2-chloro-5-fluoropyridin-3-yl)oxy)acetyl)-2-methyl-5,6,7,8-tetrahydro-[1,3,4]thiadiazolo[2′,3′:2,3]imidazo[4,5-c]pyridin-5-yl)-4-fluoro-N-methylthiophene-2-carboxamide], 47 nM.

Turning to `CNC(=O)c1ccc(OCC(=O)N2CCc3nc4sc(C)nn4c3C2c2ccc(Cl)cc2F)c(Cl)n1` (stereo not shown) [Example 1.4.21, 6-chloro-5-(2-(5-(4-chloro-2-fluorophenyl)-2-methyl-7,8-dihydro-[1,3,4]thiadiazolo[2′,3′:2,3]imidazo[4,5-c]pyridin-6(5H)-yl)-2-oxoethoxy)-N-methylpicolinamide], inhibition was half-maximal at 5 nM (IC50).

In the case of `Cc1nn2c3c(nc2s1)CCN(C(=O)COc1cnc(N(C)C)nc1Cl)C3c1ccc(Cl)cc1F` (stereo not shown) [Example 1.4.40, 2-((4-chloro-2-(dimethylamino)pyrimidin-5-yl)oxy)-1-(5-(4-chloro-2-fluorophenyl)-2-methyl-7,8-dihydro-[1,3,4]thiadiazolo [2′,3′:2,3]imidazo[4,5-c]pyridin-6(5H)-yl)ethanone], half-maximal inhibition (IC50) was put at 4 nM. On to `Cc1nn2c3c(nc2s1)CCN(C(=O)COc1cc(F)c(I)nc1Cl)C3c1ncc(C2CC2)cc1F` (stereo not shown) [Example 1.14.6, 2-((2-chloro-5-fluoro-6-iodopyridin-3-yl)oxy)-1-(5-(5-cyclopropyl-3-fluoropyridin-2-yl)-2-methyl-7,8-dihydro-[1,3,4]thiadiazolo[2′,3′:2,3]imidazo[4,5-c]pyridin-6(5H)-yl)ethanone], for which the half-maximal inhibitory concentration (IC50) came out at 6 nM.

For the compound `Cc1nn2c3c(nc2s1)CCN(C(=O)COc1ccc(F)cc1F)C3c1ccc(C2CC2)cc1F` (stereo not shown) [Example 1.6.1, 1-(5-(4-cyclopropyl-2-fluorophenyl)-2-methyl-7,8-dihydro-[1,3,4]thiadiazolo[2′,3′:2,3]imidazo[4,5-c]pyridin-6(5H)-yl)-2-(2,4-difluorophenoxy)ethanone], the IC50 is 13 nM. `Cc1nn2c3c(nc2s1)CCN(C(=O)COc1ccc(CN2CCOCC2)nc1Cl)C3c1cccnc1F` (stereo not shown) [Example 1.2.1, 2-((2-chloro-6-(morpholinomethyl)pyridin-3-yl)oxy)-1-(5-(2-fluoropyridin-3-yl)-2-methyl-7,8-dihydro-[1,3,4]thiadiazolo[2′,3′:2,3]imidazo[4,5-c]pyridine-6(5H)yl) ethanone] showed an IC50 of 208 nM. Still for that read-out and setting: next, `Cc1nn2c3c(nc2s1)CCN(C(=O)COc1ccc(N(C)C)nc1Cl)C3c1cc(CN(C)C)cs1` (stereo not shown) [Example 1.8.4, 2-((2-chloro-6-(dimethylamino)pyridin-3-yl)oxy)-1-(5-(4-((dimethylamino)methyl)thiophen-2-yl)-2-methyl-7,8-dihydro-[1,3,4]thiadiazolo[2′,3′:2,3]imidazo[4,5-c]pyridin-6(5H)-yl)ethanone]: 106 nM; `Cc1nn2c3c(nc2s1)CCN(C(=O)COc1ccc(NS(C)(=O)=O)nc1Cl)C3c1sc(C(=O)N(C)C)cc1F` (stereo not shown) [Example 1.24.9, 5-(6-(2-((2-chloro-6-(methylsulfonamido)pyridin-3-yl)oxy)acetyl)-2-methyl-5,6,7,8-tetrahydro-[1,3,4]thiadiazolo [2′,3′:2,3]imidazo[4,5-c]pyridin-5-yl)-4-fluoro-N,N-dimethylthiophene-2-carboxamide]: 6 nM. On the same count and under the same terms, next, `Cc1noc(C)c1C1c2c(nc3sccn23)CCN1C(=O)COc1ccc(Cl)cc1Cl` (stereo not shown) [Example 6.5.2, 2-(2,4-dichlorophenoxy)-1-(5-(3,5-dimethylisoxazol-4-yl)-7,8-dihydrothiazolo[2′,3′:2,3]imidazo[4,5-c]pyridin-6(5H)-yl)ethanone]: 61 nM; `CCc1nc(NS(C)(=O)=O)ccc1OCC(=O)N1CCc2nc3sc(C)nn3c2C1c1sccc1F` (stereo not shown) [Example 1.71.2, N-(6-ethyl-5-(2-(5-(3-fluorothiophen-2-yl)-2-methyl-7,8-dihydro-[1,3,4]thiadiazolo[2′,3′:2,3]imidazo[4,5-c]pyridin-6(5H)-yl)-2-oxoethoxy)pyridin-2-yl)methanesulfonamide]: 7 nM; `Cc1cnc(C2c3c(nc4sc(C)nn34)CCN2C(=O)COc2ccc(-c3ncco3)nc2Cl)c(F)c1` (stereo not shown) [Example 1.31.13, 2-((2-chloro-6-(oxazol-2-yl)pyridin-3-yl)oxy)-1-(5-(3-fluoro-5-methylpyridin-2-yl)-2-methyl-7,8-dihydro-[1,3,4]thiadiazolo[2′,3′:2,3]imidazo[4,5-c]pyridin-6(5H)-yl)ethanone]: 16 nM. `CS(=O)(=O)Nc1ccc(OCC(=O)N2CCc3nc4sc(C(F)F)nn4c3C2c2ccc(Cl)cc2F)c(Cl)n1` (stereo not shown) [Example 8.1.1, N-(6-chloro-5-(2-(5-(4-chloro-2-fluorophenyl)-2-(difluoromethyl)-7,8-dihydro-[1,3,4]thiadiazolo-[2′,3′:2,3]imidazo[4,5-c]pyridin-6(5H)-yl)-2-oxoethoxy)pyridin-2-yl)methanesulfonamide] showed an IC50 of 19 nM.
